Assay [1] addresses complex I (NADH:ubiquinone oxidoreductase), hydrophobic (physiological) Q-site (Bos taurus, UniProt P03887+P17694+P42026). As to the kind of experiment: NADH:DQ oxidoreduction, NADH absorbance. The assay is classed as biochemical.
In the next assay the target is subcomplex Iλ (Bos taurus, UniProt P25708). As to the kind of experiment: NADH:Q1 oxidoreduction. The assay is classed as biochemical. Conditions: 100 μM NADH, 0.4 mg/mL asolectin, with or without 2.3 μM rotenone, pH 7.55, 32 °C; flavin site.

What is called inhibition is the drop in the measured response relative to a control, in per cent.

complex I (NADH:ubiquinone oxidoreductase), hydrophobic (physiological) Q-site, sequence (P03887 whole entry): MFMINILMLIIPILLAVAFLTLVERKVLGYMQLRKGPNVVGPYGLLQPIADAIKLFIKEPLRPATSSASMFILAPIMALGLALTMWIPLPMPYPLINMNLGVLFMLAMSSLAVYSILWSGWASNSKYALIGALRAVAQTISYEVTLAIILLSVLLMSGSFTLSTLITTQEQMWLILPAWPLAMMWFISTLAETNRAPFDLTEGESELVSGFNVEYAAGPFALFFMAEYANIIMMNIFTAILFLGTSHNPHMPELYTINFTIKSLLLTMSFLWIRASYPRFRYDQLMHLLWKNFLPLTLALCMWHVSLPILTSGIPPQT
complex I (NADH:ubiquinone oxidoreductase), hydrophobic (physiological) Q-site, sequence (P17694 34-463): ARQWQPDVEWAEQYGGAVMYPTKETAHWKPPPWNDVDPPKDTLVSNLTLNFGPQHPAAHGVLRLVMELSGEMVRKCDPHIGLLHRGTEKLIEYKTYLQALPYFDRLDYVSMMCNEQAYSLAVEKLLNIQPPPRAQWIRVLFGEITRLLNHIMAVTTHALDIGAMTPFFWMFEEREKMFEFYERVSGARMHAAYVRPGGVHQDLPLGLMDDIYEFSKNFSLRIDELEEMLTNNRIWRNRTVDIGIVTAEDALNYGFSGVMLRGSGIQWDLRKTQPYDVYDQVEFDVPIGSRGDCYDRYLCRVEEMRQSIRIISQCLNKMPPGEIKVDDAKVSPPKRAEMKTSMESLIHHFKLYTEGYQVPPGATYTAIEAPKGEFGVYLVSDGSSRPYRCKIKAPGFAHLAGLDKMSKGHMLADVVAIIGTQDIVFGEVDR
complex I (NADH:ubiquinone oxidoreductase), hydrophobic (physiological) Q-site, sequence (P42026 38-216): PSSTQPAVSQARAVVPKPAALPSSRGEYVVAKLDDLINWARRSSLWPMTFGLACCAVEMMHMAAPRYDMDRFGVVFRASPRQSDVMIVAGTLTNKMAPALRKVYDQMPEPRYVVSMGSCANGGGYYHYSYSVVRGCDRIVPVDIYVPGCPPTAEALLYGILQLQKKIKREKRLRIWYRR
subcomplex Iλ, sequence (P04394 33-249): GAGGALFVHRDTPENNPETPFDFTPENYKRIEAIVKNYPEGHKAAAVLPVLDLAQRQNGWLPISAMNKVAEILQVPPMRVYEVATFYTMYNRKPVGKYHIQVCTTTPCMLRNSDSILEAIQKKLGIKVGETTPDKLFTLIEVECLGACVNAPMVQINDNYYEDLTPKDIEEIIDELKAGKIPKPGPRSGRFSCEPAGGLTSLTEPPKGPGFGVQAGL
subcomplex Iλ, sequence (P25708 21-464): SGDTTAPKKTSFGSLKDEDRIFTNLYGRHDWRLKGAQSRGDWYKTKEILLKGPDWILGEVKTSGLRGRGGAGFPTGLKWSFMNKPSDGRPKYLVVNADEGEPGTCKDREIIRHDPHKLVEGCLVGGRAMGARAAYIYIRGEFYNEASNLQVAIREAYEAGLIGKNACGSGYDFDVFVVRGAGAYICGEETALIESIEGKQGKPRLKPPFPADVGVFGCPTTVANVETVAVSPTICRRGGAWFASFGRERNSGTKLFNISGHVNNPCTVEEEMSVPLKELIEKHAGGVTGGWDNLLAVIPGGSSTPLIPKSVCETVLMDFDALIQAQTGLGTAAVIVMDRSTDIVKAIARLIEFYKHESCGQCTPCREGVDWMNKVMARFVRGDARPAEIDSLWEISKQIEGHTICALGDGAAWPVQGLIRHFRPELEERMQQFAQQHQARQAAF
subcomplex Iλ, sequence (P15690 24-727, further chain): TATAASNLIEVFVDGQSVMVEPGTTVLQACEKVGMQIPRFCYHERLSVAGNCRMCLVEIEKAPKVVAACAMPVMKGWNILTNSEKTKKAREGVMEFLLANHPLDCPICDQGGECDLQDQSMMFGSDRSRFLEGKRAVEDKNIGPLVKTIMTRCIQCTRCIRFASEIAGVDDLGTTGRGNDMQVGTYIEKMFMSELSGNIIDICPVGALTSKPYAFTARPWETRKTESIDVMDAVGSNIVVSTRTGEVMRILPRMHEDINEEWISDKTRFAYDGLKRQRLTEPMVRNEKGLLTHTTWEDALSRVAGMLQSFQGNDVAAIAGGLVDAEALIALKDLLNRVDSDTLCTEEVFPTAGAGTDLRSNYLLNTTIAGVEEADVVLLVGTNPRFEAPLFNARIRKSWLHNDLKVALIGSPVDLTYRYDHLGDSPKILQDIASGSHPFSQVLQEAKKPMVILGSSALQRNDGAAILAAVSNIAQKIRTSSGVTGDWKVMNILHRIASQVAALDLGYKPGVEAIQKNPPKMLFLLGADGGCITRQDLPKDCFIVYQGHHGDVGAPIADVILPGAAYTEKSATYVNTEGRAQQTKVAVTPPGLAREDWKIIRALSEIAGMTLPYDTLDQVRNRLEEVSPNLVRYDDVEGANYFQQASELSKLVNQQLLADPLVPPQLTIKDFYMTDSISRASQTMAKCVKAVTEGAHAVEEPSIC

For the molecule `C=C(C)[C@H]1Cc2c(ccc3c2O[C@@H]2COc4cc(OC)c(OC)cc4[C@@H]2C3=O)O1` [rotenone], the inhibition at 2.3 µM in assay [1] (read-out: % inhibition at 2.3 μM) was about 95%.

Take `C/C=C(\C)[C@H](O)[C@H](C)/C=C(C)/C=C/C/C(C)=C/Cc1nc(OC)c(OC)c(O)c1C` [piericidin A]: the inhibition at 1 µM in assay [1] (read-out: % inhibition at 1 μM) is about 95%.

Take `COC1=C(OC)C(=O)C(CC=C(C)C)=C(C)C1=O` [Q1]: the “NADH:Q1 oxidoreduction” value on subcomplex Iλ is listed as “Q1 reduction by subcomplex Iλ is independent of the presence of rotenone”.

The record behind these values is paper PMC2651670 (Biochemistry, 2009).
